Data set [1] in a line: Antitumor activity against Lewis lung carcinoma cell in C57BL/6 mouse assessed as tumor growth inhibition at 60 mg/kg relative to control. The following applies: C57BL/6, Lewis lung carcinoma, read-out: TGI. It counts as functional.
For data set [2], the system named is CT26. In words: Antitumor activity against mouse CT26 cells allografted in immunocompetent mouse assessed as tumor growth inhibition relative to control. It counts as functional.
Data set [3] has as its target T1, Indoleamine 2,3-dioxygenase 1 (Homo sapiens, UniProt P14902). In words: Inhibition of human recombinant IDO1 in human HeLa cells incubated for 48 hrs. It counts as cell-based.
Target sequence in this assay (P14902 whole entry): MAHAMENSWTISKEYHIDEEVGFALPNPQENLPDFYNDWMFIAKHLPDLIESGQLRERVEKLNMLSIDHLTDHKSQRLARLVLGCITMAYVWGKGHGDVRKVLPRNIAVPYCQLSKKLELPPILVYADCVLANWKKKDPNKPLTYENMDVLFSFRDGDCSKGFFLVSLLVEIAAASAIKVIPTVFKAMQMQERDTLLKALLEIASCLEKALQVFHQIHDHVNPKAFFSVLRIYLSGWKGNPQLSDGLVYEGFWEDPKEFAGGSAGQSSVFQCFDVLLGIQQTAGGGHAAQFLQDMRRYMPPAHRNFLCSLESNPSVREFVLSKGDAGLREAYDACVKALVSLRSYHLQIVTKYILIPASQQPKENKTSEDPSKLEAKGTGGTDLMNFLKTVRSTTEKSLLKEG
The test system of another data set is HeLa. Kind of data set: Cytotoxicity against human HeLa cells. The following applies: read-out: LC50 (the source's name). It counts as functional.
In data set [4] the test system is CT26. In words: Cytotoxicity against […] cells by CCK-8 method. It counts as functional, cell-based. Conditions: Mus musculus. In general terms: Tetrazolium assays rely on reduction of a dye to a coloured formazan, in cell work by metabolically active cells.
The subject of another data set is A549. In words: Cytotoxicity against human A549 cells by CCK-8 method. It counts as functional, cell-based.
The test system of data set [5] is HCT-116. In words: Cytotoxicity against human HCT-116 cells by CCK-8 method. It counts as functional, cell-based.
In a further data set the test system is HT-29. Kind of data set: Cytotoxicity against human HT-29 cells by CCK-8 method. It counts as functional, cell-based.
Data set [6] concerns CT26. In words: Antitumor activity against mouse CT26 cells allografted in nude mouse assessed as reduction in tumor volume relative to control. Set-up: scale not given: the % may be the effect or the level left. It counts as functional.
Data set [7] can be described thus: Clearance in Sprague-Dawley rat plasma. It counts as ADME, cell-free.
Data set [8] is described as follows: Volume of distribution in Sprague-Dawley rat plasma. It counts as ADME, cell-free.
Data set [9] concerns CT26. Kind of data set: Antitumor activity against mouse CT26 cells allografted in mouse assessed as tumor growth inhibition at 50 mg/kg. It counts as functional. The following applies: read-out: TGI.
Data set [10] has as its target T1, Indoleamine 2,3-dioxygenase 1. In words: Inhibition of recombinant N-terminal His tagged IDO1 (unknown origin) expressed in Escherichia coli incubated for 1.5 hrs by FULOstar OMEGA plate reader method.
Target sequence in this assay (P14902 whole entry): as above
Data set [11] has as its target Tryptophan 2,3-dioxygenase (Homo sapiens, UniProt P48775). Kind of data set: Inhibition of recombinant C-terminal His tagged TDO (unknown origin) expressed in Escherichia coli.
Data set [12] concerns the target T1, Indoleamine 2,3-dioxygenase 1. Kind of data set: Inhibition of IDO1 in human A-172 cells. It counts as cell-based.
Target sequence in this assay (P14902 whole entry): as above
Data set [13] has the same target. In words: Inhibition of IDO1 (unknown origin) using L-tryptophan as substrate at 10 uM incubated for 10 mins relative to control.
Target sequence in this assay (P14902 whole entry, looked up): as the sequence (P14902 whole entry) above
Data set [14] shares this target. In words: Inhibition of IDO1 (unknown origin) using L-tryptophan as substrate incubated for 10 mins.
Target sequence in this assay (P14902 whole entry): as above
A further data set concerns the target Histone deacetylase 1 (Homo sapiens, UniProt Q13547). Kind of data set: Inhibition of HDAC1 (unknown origin) using […] as substrate preincubated for 15 mins followed by substrate addition measured after 60 mins.
Data set [15] in a line: Antiproliferative activity against melanoma cells (unknown origin) subcutaneously xenografted in mouse model assessed as inhibition of cell growth rate at 50 mg/kg relative to control. It counts as functional. The following applies: sc.
Data set [16] can be described thus: Antiproliferative activity against melanoma cells (unknown origin) subcutaneously xenografted in mouse model assessed as inhibition of cell growth rate at 100 mg/kg relative to control. It counts as functional. Conditions: sc.
Data set [17] is described as follows: Cytotoxicity against human colon epithelial cells incubated for 24 hrs by CCK-8 assay. The following applies: Epithelial cell. It counts as functional, cell-based.
The test system of data set [18] is HCT-116. In words: Cytotoxicity against human HCT-116 incubated for 24 hrs by CCK-8 assay. Conditions: HCT-116, 24 h. It counts as functional, cell-based.
In data set [19] the target is T1, Indoleamine 2,3-dioxygenase 1. In words: Inhibition of IDO1 in human HeLa cells. It counts as cell-based.
Target sequence in this assay (P14902 whole entry): as above
For data set [20] the target is unchanged. Kind of data set: Inhibition of human N-terminal His tagged recombinant IDO1 (5 to 403 residues) expressed in Escherichia coli BL21 (DE3).
Target sequence in this assay (P14902 whole entry): as above
Data set [21] can be described thus: Inhibition of rat liver TrxR incubated for 1 hr. It counts as tissue-based.
A short description of data set [22]: Inhibition of TrxR in human HCT-116 cell lysate. It counts as subcellular.
Data set [23] can be described thus: Antitumor activity against mouse LL2 cells allografted in mouse model over expressing IDO1 assessed as tumor growth inhibition relative to control. It counts as functional, Lewis lung carcinoma.
Data set [24] in a line: Antitumor activity against mouse HEPA1-6 cells allografted in mouse model over expressing IDO1 assessed as tumor growth inhibition relative to control. It counts as functional.
Data set [25] can be described thus: Antitumor activity against mouse HEPA1-6 cells allografted in mouse model over expressing TDO assessed as tumor growth inhibition relative to control. It counts as functional.
In data set [26] the target is T1, Indoleamine 2,3-dioxygenase 1. Kind of data set: Inhibition of IDO1 in human BT-549 cells. It counts as cell-based. The following applies: pooled result: one value given for 2 cell lines, strains, targets or settings.
For data set [27] the target is unchanged. Kind of data set: Inhibition of IDO1 (unknown origin).
Data set [28] is described as follows: Antiproliferative activity against mouse Lewis lung carcinoma cell line. It counts as functional, cell-based.
The subject of data set [29] is CT26. In words: Antiproliferative activity against mouse CT26 cells. It counts as functional, cell-based.
Data set [30] concerns HCT-116. In words: Antiproliferative activity against human HCT-116 cells. It counts as functional, cell-based.
A short description of data set [31]: Antitumor activity against Lewis Lung carcinoma cells in mouse expressing IDO1 assessed as tumor growth inhibition relative to control. It counts as functional.

16 molecules from ChEMBL document CHEMBL5214925, “Dual-target inhibitors of indoleamine 2, 3 dioxygenase 1 (Ido1): A promising direction in cancer immunotherapy” (Eur J Med Chem, 2022) can be followed below.

Sequence of Tryptophan 2,3-dioxygenase (P48775 whole entry): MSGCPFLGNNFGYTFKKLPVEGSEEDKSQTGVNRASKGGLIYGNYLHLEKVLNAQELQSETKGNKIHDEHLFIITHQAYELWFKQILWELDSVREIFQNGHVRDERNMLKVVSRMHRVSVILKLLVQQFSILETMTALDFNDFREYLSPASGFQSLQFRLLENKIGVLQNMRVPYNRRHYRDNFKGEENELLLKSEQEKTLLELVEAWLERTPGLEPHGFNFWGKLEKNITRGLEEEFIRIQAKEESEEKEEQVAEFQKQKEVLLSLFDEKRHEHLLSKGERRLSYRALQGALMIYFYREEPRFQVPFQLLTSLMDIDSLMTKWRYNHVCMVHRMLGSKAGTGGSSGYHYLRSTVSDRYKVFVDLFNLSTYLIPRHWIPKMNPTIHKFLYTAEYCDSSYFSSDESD
Sequence of Histone deacetylase 1 (Q13547 whole entry): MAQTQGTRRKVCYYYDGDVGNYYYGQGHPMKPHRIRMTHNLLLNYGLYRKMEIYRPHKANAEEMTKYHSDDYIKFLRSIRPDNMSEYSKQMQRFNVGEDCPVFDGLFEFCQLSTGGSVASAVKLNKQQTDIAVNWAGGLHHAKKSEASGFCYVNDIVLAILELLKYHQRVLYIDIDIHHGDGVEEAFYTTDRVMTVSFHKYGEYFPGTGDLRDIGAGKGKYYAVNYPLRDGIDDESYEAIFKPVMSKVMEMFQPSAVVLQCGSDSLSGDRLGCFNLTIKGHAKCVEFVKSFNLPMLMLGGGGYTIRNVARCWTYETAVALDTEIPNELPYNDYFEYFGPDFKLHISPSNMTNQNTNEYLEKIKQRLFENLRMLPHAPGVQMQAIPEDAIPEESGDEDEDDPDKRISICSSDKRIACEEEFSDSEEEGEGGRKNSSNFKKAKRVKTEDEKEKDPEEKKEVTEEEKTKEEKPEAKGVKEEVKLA

For `NS(=O)(=O)NCCNc1nonc1/C(=N/O)Nc1ccc(F)c(Br)c1` [EPACADOSTAT], the inhibition in vivo at 60 mg/kg in data set [1] turned out to be 68%. The TGI (usually the reduction of tumour growth relative to the control group) in the data set with CT26 [2] is on record as 47.5%.

As to `O=C(NCCNc1nonc1/C(=N/O)Nc1ccc(F)c(Br)c1)c1cccc(N(CCCl)CCCl)c1`, in data set [3], the EC50 (as a rule, the concentration at which the effect is half-maximal) was determined as 0.27 µM. Besides, in the data set on HeLa, the CC50 is 39 µM. Moreover, the IC50 (usually the midpoint of a concentration-inhibition curve) is 25 µM in the data set on CT26 [4], 17 µM with A549, 25 µM with HCT-116 [5] and 19 µM in the data set on HT-29. In addition, in the data set with CT26 [2], the TGI worked out at 58.2%. The Activity in the data set on CT26 [6] stood at 28.6%.

Consider `OCCOCc1cn(CCNc2nonc2/C(=N/O)Nc2ccc(F)c(Br)c2)nn1`, for which, in [7], the clearance (commonly the rate of elimination divided by the concentration) is 27.5 mL/min/kg. Besides, the Vd (as a rule, the apparent volume that relates the amount in the body to the concentration in plasma or blood) in [8] is 0.88 L/kg. Further, in the data set with CT26 [9], the inhibition in vivo at 50 mg/kg came to 69.7%.

`O[C@@H](c1cn2cncc2cc1Cl)C1CCCCC1`: the IC50 in data set [10] is 0.0096 µM; in data set [11], 0.029 µM.

Turning to `Cn1cc(-c2ccc(NC(N)=O)cc2)c2ccc(F)cc21`, the IC50 amounted to 0.049 µM in [10] and 0.078 µM in data set [11].

`CC1=C(CC(=O)c2sccc2Br)C(=O)c2ccccc2C1=O` returned an IC50 in data set [12] of 37.7 µM.

Regarding `CC(C)=CCCc1c(C)ccc2c1C(=O)C(=O)C(C(C)C)=C2`, in data set [13], the inhibition – broadly, the share of the control response that was lost under treatment – is 85%.

Regarding `Cc1ccc2c(c1CCC(=O)NCCCCCC(=O)CNc1ccccc1N)C(=O)C(=O)C(C(C)C)=C2`, the figures for the IC50 (in data set [14]; on Histone deacetylase 1) were 0.73 µM and 0.46 µM, respectively.

`COc1cc(Nc2cc(NC(C)=O)cc3[nH]c(C(=O)O)cc23)cc(OC)c1OC`: in [15], the inhibition in vivo at 50 mg/kg was determined as 43.2%. Further, the inhibition in vivo at 100 mg/kg in [16] is 44.7%.

`COc1cc(/C=C/C(=O)N2CCC=CC2=O)cc(OC)c1OC` [PIPLARTINE]: the IC50 in [17] was 46.9 µM; in the data set on HCT-116 [18] it was 6.38 µM.

In turn, `O=C1C=CCCN1C(=O)/C=C/c1ccccc1-c1c[nH]cn1` came in with an EC50 in data set [19] of 1.41 µM. Further, the IC50 in data set [20] stood at 0.084 µM; in [21], 7.89 µM; in [17], 42 µM; with HCT-116 [18], 0.55 µM; in data set [22], 4.22 µM.

In the case of `O=C1c2cc(F)ccc2C(=O)c2c1nnn2-c1ccc(F)c(Cl)c1`, the figures for the TGI in data set [23], in [24] and in [25] were 62.5%, 80% and 80%, respectively.

For `COc1ccccc1C(=O)CC(=O)c1ccc(C)cc1O`, inhibition in data set [26] was half-maximal at 20.6 µM (IC50).

Regarding `NC(CC(=O)O)Cc1c[nH]c2ccc(N(CCCl)CCCl)cc12` (stereo unspecified), the IC50 in [27] is 14 µM; in data set [28], 23.7 µM; in the data set on CT26 [29] it was 23.7 µM; with HCT-116 [30], 23.7 µM. In data set [31], the TGI worked out at 63.8%.

With `NC(CC(=O)O)Cc1c[nH]c2cc(N(CCCl)CCCl)ccc12` (stereo unspecified), the IC50 in [27] amounted to 227 µM; in data set [28] it was 63.9 µM; in the data set with CT26 [29] it was 63.9 µM; in the data set with HCT-116 [30] it was 63.9 µM. The TGI in data set [31] is 73.5%.

`Cc1ccc(C(=O)CC(=O)c2ccccc2OC(C)C)c(O)c1` came in with an IC50 in data set [26] of 10.8 µM.
